# Tests used:
# Format in all cases: physicochemical
# [1] = Partition coefficient of t-rotamer in octanol water system
# [2] = Partition coefficient (logP); details: octanol/water
# [3] = Partition coefficient of h-rotamer in octanol water system
# [4] = Partition coefficient of g-rotamer in octanol water system
smiles,measurement,setting,value
CC(C)(C)NCC(O)c1cc(Cl)c(N)c(Cl)c1 (centres undefined) [CLENBUTEROL],logP,[1],2.87
same,logP,[2],2.71
same,logP,[3],2.57
same,logP,[4],2.14
